{"source": "patent US12544370B2", "about": "“Methods for cancer therapy” (ASCENTAGE PHARMA (SUZHOU) CO., LTD., priority 2018, dated 2026)", "system": "patients with chronic phase (CP/CML-CP) or accelerated phase (AP/CML-AP) CML resistant to or intolerant of ≥2 prior TKIs or with BCR-ABL T315I", "experiment": "Phase 1 trial in resistant CML, further safety (Example 2)", "text": "The eligible patients received continuous treatment until disease progression or unacceptable toxicity, consent withdrawal, or death. The primary efficacy endpoints were major cytogenetic response (MCyR) for CP and complete hematological response (CHR) for AP. MCyR includes partial cytogenetic response (PCyR) and complete cytogenetic response (CCyR). Blood samples were collected at various time points on Day 1-2 and Day 27-28 during cycle 1 for PK analyses.", "key": {"[1]": {"details": "Example 2, Table 3, treatment related AE, treated population 101"}}}
{"smiles": "Cc1ccc(C(=O)Nc2ccc(CN3CCN(C)CC3)c(C(F)(F)F)c2)cc1C#Cc1cnc2[nH]ncc2c1", "note": "[compound of formula (I-A), 3-(2-(1H-pyrazolo[3,4-b]pyridin-5-yl)ethynyl)-4-methyl-N-(4-((4-methylpiperazin-1-yl)methyl)-3-(trifluoromethyl)phenyl)-benzamide]", "values": [{"measurement": "death / CTCAE grade 5 events on study", "setting": "Example 2", "value": "No death and no CTCAE grade 5 events"}, {"measurement": "ALT elevation, Any Grade", "setting": "[1]", "value": "34 (33.7%) n(%)"}, {"measurement": "ALT elevation, Grade 3, 4", "setting": "[1]", "value": "2 (2.0%) n(%)"}, {"measurement": "ALT elevation, SAE", "setting": "[1]", "value": "0 n(%)"}, {"measurement": "AST elevation, Any Grade", "setting": "[1]", "value": "37 (36.6%) n(%)"}, {"measurement": "AST elevation, Grade 3, 4", "setting": "[1]", "value": "3 (3.0%) n(%)"}, {"measurement": "AST elevation, SAE", "setting": "[1]", "value": "0 n(%)"}, {"measurement": "Anemia, Any Grade", "setting": "[1]", "value": "25 (24.8%) n(%)"}, {"measurement": "Anemia, Grade 3, 4", "setting": "[1]", "value": "12 (11.9%) n(%)"}, {"measurement": "Anemia, SAE", "setting": "[1]", "value": "2 (2.0%) n(%)"}, {"measurement": "Bilirubin elevation, Any Grade", "setting": "[1]", "value": "34 (33.7%) n(%)"}, {"measurement": "Bilirubin elevation, Grade 3, 4", "setting": "[1]", "value": "1 (1.0%) n(%)"}, {"measurement": "Bilirubin elevation, SAE", "setting": "[1]", "value": "0 n(%)"}, {"measurement": "CPK elevation, Any Grade", "setting": "[1]", "value": "20 (19.8%) n(%)"}, {"measurement": "CPK elevation, Grade 3, 4", "setting": "[1]", "value": "2 (2.0%) n(%)"}, {"measurement": "CPK elevation, SAE", "setting": "[1]", "value": "0 n(%)"}, {"measurement": "GGT elevation, Any Grade", "setting": "[1]", "value": "24 (23.8%) n(%)"}, {"measurement": "GGT elevation, Grade 3, 4", "setting": "[1]", "value": "0 n(%)"}, {"measurement": "GGT elevation, SAE", "setting": "[1]", "value": "0 n(%)"}, {"measurement": "Hyperglycaemia, Grade 3, 4", "setting": "[1]", "value": "0 n(%)"}, {"measurement": "Hyperglycaemia, SAE", "setting": "[1]", "value": "0 n(%)"}, {"measurement": "Hypertriglyceridaemia, Any grade", "setting": "[1]", "value": "55 (54.5%) n(%)"}, {"measurement": "Hypertriglyceridaemia, Grade 3, 4", "setting": "[1]", "value": "8 (7.9%) n(%)"}, {"measurement": "Hypertriglyceridaemia, SAE", "setting": "[1]", "value": "0 n(%)"}, {"measurement": "Hypocalcaemia, Any grade", "setting": "[1]", "value": "34 (33.7%) n(%)"}, {"measurement": "Hypocalcaemia, Grade 3, 4", "setting": "[1]", "value": "0 n(%)"}, {"measurement": "Hypocalcaemia, SAE", "setting": "[1]", "value": "0 n(%)"}, {"measurement": "Hypokalaemia, Any Grade", "setting": "[1]", "value": "20 (19.8%) n(%)"}, {"measurement": "Hypokalaemia, Grade 3, 4", "setting": "[1]", "value": "0 n(%)"}, {"measurement": "Hypokalaemia, SAE", "setting": "[1]", "value": "0 n(%)"}, {"measurement": "Hyponatraemia, Any Grade", "setting": "[1]", "value": "23 (22.8%) n(%)"}, {"measurement": "Hyponatraemia, Grade 3, 4", "setting": "[1]", "value": "0 n(%)"}, {"measurement": "Hyponatraemia, SAE", "setting": "[1]", "value": "0 n(%)"}, {"measurement": "Myalgia, Grade 3, 4", "setting": "[1]", "value": "0 n(%)"}, {"measurement": "Myalgia, SAE", "setting": "[1]", "value": "0 n(%)"}, {"measurement": "Proteinuria, Any grade", "setting": "[1]", "value": "35 (34.7%) n(%)"}, {"measurement": "Proteinuria, Grade 3, 4", "setting": "[1]", "value": "5 (5.0%) n(%)"}, {"measurement": "Proteinuria, SAE", "setting": "[1]", "value": "0 n(%)"}, {"measurement": "Pyrexia, Any Grade", "setting": "[1]", "value": "18 (17.8%) n(%)"}, {"measurement": "Pyrexia, Grade 3, 4", "setting": "[1]", "value": "7 (6.9%) n(%)"}, {"measurement": "Pyrexia, SAE", "setting": "[1]", "value": "1 (1.0%) n(%)"}, {"measurement": "Rash, Any Grade", "setting": "[1]", "value": "15 (14.9%) n(%)"}, {"measurement": "Rash, Grade 3, 4", "setting": "[1]", "value": "2 (2.0%) n(%)"}, {"measurement": "Rash, SAE", "setting": "[1]", "value": "0 n(%)"}, {"measurement": "Skin mass, Any Grade", "setting": "[1]", "value": "10 (9.9%) n(%)"}, {"measurement": "Skin mass, Grade 3, 4", "setting": "[1]", "value": "1 (1.0%) n(%)"}, {"measurement": "Skin mass, SAE", "setting": "[1]", "value": "0 n(%)"}, {"measurement": "Skin pigmentation, Any Grade", "setting": "[1]", "value": "79 (78.2%) n(%)"}, {"measurement": "Skin pigmentation, Grade 3, 4", "setting": "[1]", "value": "0 n(%)"}, {"measurement": "Skin pigmentation, SAE", "setting": "[1]", "value": "0 n(%)"}, {"measurement": "Thrombocytopenia, Any grade", "setting": "[1]", "value": "76 (75.2%) n(%)"}, {"measurement": "Thrombocytopenia, Grade 3, 4", "setting": "[1]", "value": "50 (49.5%) n(%)"}, {"measurement": "Thrombocytopenia, SAE", "setting": "[1]", "value": "6 (5.9%) n(%)"}, {"measurement": "leukopenia, Grade 3, 4", "setting": "[1]", "value": "20 (19.8%) n(%)"}, {"measurement": "leukopenia, SAE", "setting": "[1]", "value": "0 n(%)"}, {"measurement": "patients who experienced DLT", "setting": "Example 2, 60 mg cohort", "value": "Two out of 3"}, {"measurement": "grade ¾ TRAE thrombocytopenia", "setting": "Example 2, 101 patients", "value": 49.5, "unit": "%"}, {"measurement": "tolerability", "setting": "Example 2, 101 patients", "value": "well-tolerated in all dose cohorts with an exception of 60 mg cohort"}, {"measurement": "MTD", "setting": "Example 2, QOD", "value": 50, "unit": "mg"}, {"measurement": "patients who experienced ≥1 treatment related adverse events (TRAEs)", "setting": "Example 2, all patients", "value": "101 (100%) n (%)"}]}
